The structures appear in SMILES notation. Converted amounts (≈) assume the structure as drawn. Where a name gives a salt, the structure may show the parent alone. Read-outs that look alike come from different tables or passages of the source.

Series [1] concerns the target CGRP receptor ectodomain complex (Homo sapiens (Human), UniProt O60894+Q16602). Nature of the series: Receptor kinetic profiling by surface plasmon resonance (Biacore T200). As to conditions: SPR; for receptor dissociation (off-rate) compared with olcegepant or MK-3207: in words; for CGRP t1/2: dissociation half-life, 25° C.
Method: Kinetic analyses were run on a Biacore T200 instrument (GE Healthcare Bio-Sciences AB, Uppsala, Sweden) at 25° C. using 0.05 mM EDTA, PBS (10 mM phosphate buffer, 2.7 mM KCl, 137 mM NaCl) pH 7.4, 0.005% v/v Surfactant P20, 5% DMSO as the running buffer. […] The chip was loaded with Ni^2+ and carboxyl groups of the dextran matrix were activated by EDC/NHS. The receptor ectodomain complex (100 nM in running buffer) was then injected and immobilised via the His-tag and amino groups. Two fold dilution series of each compound (five concentrations, in the range 25-40 nM) were injected. Blank-subtracted data were fitted to a 1:1 interaction model to obtain kinetic parameters which are expressed in Table 4 as dissociation half-life (t1/2=(ln 2/off-rate (kd)/60).
Another series deals with CGRP receptor (Homo sapiens (Human), UniProt O60894+Q16602). The experiment in a line: cAMP functional assay (HTRF) in SK-N-MC cells. It is filed as cell-based. The conditions noted are these: read-out: pkb average (converted). The procedure: cAMP production following receptor activation was determined using the Homogeneous Time-Resolved Fluorescence (HTRF) cAMP dynamic-2 assay (Cisbio, France). The human neuroblastoma cell line SK-N-MC endogenously expressing the human CGRP receptor was seeded at a density of 12,500 cells/well in solid walled 96 well half area plates (Costar, Catalog Number 3688, Corning Life Sciences, Germany). After 16 h incubation at 37° C. media was removed and cells were incubated at 37° C. for 30 min in serum free media containing 500 μM IBMX (Tocris, Abingdon, UK, Catalog Number 2845) and increasing concentrations of test antagonist. Following this cells were challenged with an EC80 concentration of human CGRP (0.3 nM) for a further 30 min at 37° C. and then cAMP production was determined as manufacturer's instructions before plates were read on a PheraStar fluorescence plate reader (BMG LabTech, Germany). IC50 values were derived from the inhibition curve. The pIC50 values (where pIC50=−log10 IC50) were converted to a functional pKb value using a modified Cheng-Prussoff equation where Kd=agonist EC50 and L hot=agonist challenge concentration. The pKb values of certain compounds of the invention are detailed in Table 3.

Series [2] deals with Human CGRP receptors (consisting of CRLR and RAMP1) (Homo sapiens (Human), UniProt O60894+Q16602). The experiment in a line: Radioligand binding assay (3H-telcagepant displacement). As to conditions: Sf21 membranes, 0.5 nM 3H-telcagepant, Cheng-Prussoff. The procedure:
Human Calcitonin Receptor Like Receptor (CRLR) and human RAMP1 were cloned into Invitrogen's (ThermoFisher Scientific, UK) pFastBac dual expression vector. Transposition of CRLR/RAMP1 DNA was performed using Invitrogen's Bac-to-Bac Baculovirus Expression Systems. P0 baculovirus was generated by transfecting SF9 cells with bacmid DNA using Cellfectin® II transfection reagent (ThermoFisher Scientific, UK, catalog number 10362-100). Following P0 generation P1 virus was then generated ready for large scale infection and membrane preparation. Sf21 cells were grown in expression medium ESF921 (Expression Systems, USA, catalog number 96-001-01) supplemented with 10% heat-inactivated FBS and 1% Pen/Strep and were infected at a cell density of 2.5×10^6 cells/mL and an MOI of 2. Expression was carried out over 48 h in a shaking incubator set at 27° C. The cell culture was centrifuged at 2,500 rcf for 10 min at 4° C. The pellets were resuspended in cold PBS supplemented with Roche's Complete EDTA-free protease inhibitor cocktail tablets (Roche Applied Sciences, catalog number 05056489001), 1 mM PMSF and 1 mM EDTA. The resuspended cell paste was then centrifuged at 3,273 rcf for 12 min at 4° C. The supernatant was discarded and the pellet frozen at −80° C. The cell pellet from a 4 L culture was resuspended in buffer containing 50 mM Hepes pH 7.5, 150 mM NaCl, 8 Roche EDTA-free protease inhibitor cocktail tablets and 1 mM PMSF. The suspension was left stirring at rt for 1 h and then homogenised for 90 s at 9,500 rpm using a VDI 25 (VWR, USA) homogeniser. The cells were then lysed using a Microfluidizer processor M-110L Pneumatic (Microfluidics, USA). After lysis, the mixture was homogenised for 90 s at 9,500 rpm and then centrifuged at 335 rcf for 10 min. The supernatant was then further ultra-centrifuged at 42,000 rpm for 90 min. After ultra-centrifugation, the supernatant was discarded and the pellet was resuspended in 50 mL (25 mL for each 2 L culture) of buffer containing 50 mM Hepes pH 7.5, 150 mM NaCl, 3 Roche EDTA-free protease inhibitor cocktail tablets and 1 mM PMSF. The suspension was then homogenised for 90 s at 9,500 rpm. The resulting membranes were then stored at −80° C.
Human CGRP receptors expressed (consisting of CRLR and RAMP1) in insect Sf21 cell membrane homogenates were re-suspended in the binding buffer (10 mM HEPES, pH 7.4, 5 mM MgCl2, 0.2% BSA) to a final assay concentration of 0.6 μg protein per well. Saturation isotherms were determined by the addition of various concentrations of ^3H-telcagepant (Ho et al, The Lancet, 2008, 372, 2115) (in a total reaction volume of 250 μL) for 60 min at rt. At the end of the incubation, membranes were filtered onto a unifilter, a 96-well white microplate with bonded GF/B filter pre-incubated with 0.5% PEI, with a Tomtec cell harvester and washed 5 times with distilled water. Non-specific binding (NSB) was measured in the presence of 10 nM MK-3207 hydrochloride (CAS No. 957116-20-0). Radioactivity on the filter was counted (1 min) on a microbeta counter after addition of 50 μL of scintillation fluid. For inhibition experiments, membranes were incubated with 0.5 nM ^3H-telcagepant and 10 concentrations of the inhibitory compound (0.001-10 μM). IC50 values were derived from the inhibition curve and the affinity constant (Ki) values were calculated using the Cheng-Prussoff equation (Cheng et al, Biochem. Pharmacol. 1973, 22, 3099-3108).

Series [3] is described as follows: Thermodynamic solubility profiling. As to conditions: aqueous buffer, thermodynamic from solid. In kind it is physicochemical. As to the method: A 50 mM DMSO stock solution of test compound was prepared, and from this, a working solution of 1 mM was prepared by dilution with DMSO. The UV absorbance of working solution was scanned from 220 nm to 1000 nm to identify the wavelength maxima of test compound. The 1 mM working solution was then serially diluted in DMSO to different concentrations to determine linearity/calibration curve. […] The resulting solution was then kept on a RotoSpin shaker at 50 rpm for 24 h at rt before the solution was filtered using 0.45 micron PVDF injector filters in order to remove the insoluble fraction of the compound. Subsequently, 150 uL of the filtrate is taken for quantification using a UV spectrophotometer, acquiring the optical density of standard solutions and test compound at the same wavelength maxima. From the optical density of test compound the thermodynamic solubility is calculated using the linearity/calibration curve and expressed as micromolar (μM). Solubility profiles of certain compounds of the invention are detailed in Table 7.

[4] abbreviates: PBS buffer pH 7.4, 24 h at rt, read-out: Thermodynamic solubility pH 7.4.
Where [5] appears, read: Sodium Phosphate Buffer pH 6.0, 24 h at rt, read-out: Thermodynamic solubility pH 6.

CGRP receptor ectodomain complex, sequence (Q16602 23-139): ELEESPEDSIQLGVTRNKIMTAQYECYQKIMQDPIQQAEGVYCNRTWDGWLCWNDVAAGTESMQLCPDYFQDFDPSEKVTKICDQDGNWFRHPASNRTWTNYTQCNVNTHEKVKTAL
CGRP receptor ectodomain complex, sequence (O60894 27-118): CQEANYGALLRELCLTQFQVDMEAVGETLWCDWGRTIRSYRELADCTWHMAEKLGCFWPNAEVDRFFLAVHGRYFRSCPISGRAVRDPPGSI
Human CGRP receptors (consisting of CRLR and RAMP1), sequence (Q16602 23-461): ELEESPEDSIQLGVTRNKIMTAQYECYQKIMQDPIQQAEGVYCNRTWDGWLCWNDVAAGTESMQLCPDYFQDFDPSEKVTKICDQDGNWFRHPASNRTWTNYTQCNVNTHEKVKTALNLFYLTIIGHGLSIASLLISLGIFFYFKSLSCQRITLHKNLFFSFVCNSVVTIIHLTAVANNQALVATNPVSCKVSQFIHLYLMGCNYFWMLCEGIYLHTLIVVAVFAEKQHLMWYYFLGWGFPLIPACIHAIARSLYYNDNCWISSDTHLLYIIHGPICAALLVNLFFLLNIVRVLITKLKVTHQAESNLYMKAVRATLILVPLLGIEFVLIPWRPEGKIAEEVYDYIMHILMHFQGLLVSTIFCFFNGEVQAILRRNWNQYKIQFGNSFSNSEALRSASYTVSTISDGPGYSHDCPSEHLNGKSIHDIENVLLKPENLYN
Human CGRP receptors (consisting of CRLR and RAMP1), sequence (O60894 27-148): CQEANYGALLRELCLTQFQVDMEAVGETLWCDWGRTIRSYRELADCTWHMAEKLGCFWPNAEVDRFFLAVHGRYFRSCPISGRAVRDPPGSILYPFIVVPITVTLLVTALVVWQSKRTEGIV
CGRP receptor, sequence (Q16602 23-461): as the sequence (Q16602 23-461) above
CGRP receptor, sequence (O60894 27-148): as the sequence (O60894 27-148) above

`Cc1cc(C[C@@H](NC(=O)N2CCC(c3cc4ccccc4[nH]c3=O)CC2)C(=O)N[C@@H](CC2CCN(C(=O)OC(C)(C)C)CC2)C(=O)N2CCN(c3ccncc3)CC2)cc2cn[nH]c12` [Example 2, tert-butyl 4-{(2S)-2-{[(2R)-3-(7-methyl-1H-indazol-5-yl)-2-({[4-(2-oxo-1,2-dihydroquinolin-3-yl)piperidin-1-yl]carbonyl}amino)propanoyl]amino}-3-oxo-3-[4-(pyridin-4-yl)piperazin-1-yl]propyl}piperidine-1-carboxylate]: in series [1], the “receptor dissociation (off-rate) compared with olcegepant or MK-3207” value is on record as “slow receptor dissociation” and the “CGRP t1/2” value was 78 min. The Kb at CGRP receptor was 0.2 nM. The compound further had a pKi average in series [2] of 10.0.
Turning to `Cc1cc(C[C@@H](NC(=O)N2CCC(c3cc4ccccc4[nH]c3=O)CC2)C(=O)N[C@@H](CC2CCNCC2)C(=O)N2CCN(c3ccncc3)CC2)cc2cn[nH]c12` [Example 3, N-[(2R)-3-(7-methyl-1H-indazol-5-yl)-1-oxo-1-({(2S)-1-oxo-3-(piperidin-4-yl)-1-[4-(pyridin-4-yl)piperazin-1-yl]propan-2-yl}amino)propan-2-yl]-4-(2-oxo-1,2-dihydroquinolin-3-yl)piperidine-1-carboxamide], in series [1], the “CGRP t1/2” value stood at 4 min. Also, the values for the solubility (thermodynamic) at 24 h in series [3] (setting [4]) and in series [3] (setting [5]) were 509 µM (≈ 393 µg/mL) and 10 µM (≈ 7.73 µg/mL), respectively. Also, the Kb at CGRP receptor was 0.158 nM. In addition, the pKi average in series [2] is 10.1.
With `CCCN1CCC(C[C@H](NC(=O)[C@@H](Cc2cc(C)c3[nH]ncc3c2)NC(=O)N2CCC(c3cc4ccccc4[nH]c3=O)CC2)C(=O)N2CCN(c3ccncc3)CC2)CC1` [Example 4, N-[(2R)-3-(7-methyl-1H-indazol-5-yl)-1-oxo-1-({(2S)-1-oxo-3-(1-propylpiperidin-4-yl)-1-[4-(pyridin-4-yl)piperazin-1-yl]propan-2-yl}amino)propan-2-yl]-4-(2-oxo-1,2-dihydroquinolin-3-yl)piperidine-1-carboxamide], in series [1], the “receptor dissociation (off-rate) compared with olcegepant or MK-3207” value is “slow receptor dissociation” and the “CGRP t1/2” value stood at 39 min. The Kb at CGRP receptor was 0.02 nM. Further, the pKi average in series [2] turned out to be 10.4.
`CCCCC(=O)N1CCC(C[C@H](NC(=O)[C@@H](Cc2cc(C)c3[nH]ncc3c2)NC(=O)N2CCC(c3cc4ccccc4[nH]c3=O)CC2)C(=O)N2CCN(c3ccncc3)CC2)CC1` [Example 6, N-[(2R)-3-(7-methyl-1H-indazol-5-yl)-1-oxo-1-({(2S)-1-oxo-3-(1-pentanoylpiperidin-4-yl)-1-[4-(pyridin-4-yl)piperazin-1-yl]propan-2-yl}amino)propan-2-yl]-4-(2-oxo-1,2-dihydroquinolin-3-yl)piperidine-1-carboxamide]: in series [1], the “receptor dissociation (off-rate) compared with olcegepant or MK-3207” value is listed as “slow receptor dissociation” and the “CGRP t1/2” value came to 20 min. Moreover, the Kb on CGRP receptor is 0.1 nM. Besides, the pKi average in series [2] was determined as 10.0.
For the compound `CCN1CCC(C[C@H](NC(=O)[C@@H](Cc2cc(C)c3[nH]ncc3c2)NC(=O)N2CCC(c3cc4ccccc4[nH]c3=O)CC2)C(=O)N2CCN(c3ccncc3)CC2)CC1` [Example 7, N-[(2R)-1-({(2S)-3-(1-ethylpiperidin-4-yl)-1-oxo-1-[4-(pyridin-4-yl)piperazin-1-yl]propan-2-yl}amino)-3-(7-methyl-1H-indazol-5-yl)-1-oxopropan-2-yl]-4-(2-oxo-1,2-dihydroquinolin-3-yl)piperidine-1-carboxamide], in series [1], the “receptor dissociation (off-rate) compared with olcegepant or MK-3207” value was “slow receptor dissociation” and the “CGRP t1/2” value is reported as 36 min. Further, the Kb on CGRP receptor is 0.0251 nM. In addition, the pKi average in series [2] turned out to be 10.4.
The like results for `O=C(N[C@@H](CC1CCNCC1)C(=O)N1CCN(c2ccncc2)CC1)[C@@H](Cc1cc(Br)c(O)c(Br)c1)NC(=O)N1CCC(N2Cc3ccccc3NC2=O)CC1` [Example 9, 3,5-dibromo-Nα-{[4-(2-oxo-1,4-dihydroquinazolin-3(2H)-yl)piperidin-1-yl]carbonyl}-N-{(2S)-1-oxo-3-(piperidin-4-yl)-1-[4-(pyridin-4-yl)piperazin-1-yl]propan-2-yl}-D-tyrosinamide] were, in that order, “slow receptor dissociation”, 32 min, 0.00631 nM and 10.1.
Take `Cc1cc(C[C@@H](NC(=O)N2CCC(n3c(=O)[nH]c4ncccc43)CC2)C(=O)N[C@@H](CC2CCN(CCN(C)C)CC2)C(=O)N2CCN(c3ccncc3)CC2)cc2cn[nH]c12` [Example 12, N-[(2R)-1-({(2S)-3-{1-[2-(dimethylamino)ethyl]piperidin-4-yl}-1-oxo-1-[4-(pyridin-4-yl)piperazin-1-yl]propan-2-yl}amino)-3-(7-methyl-1H-indazol-5-yl)-1-oxopropan-2-yl]-4-(2-oxo-2,3-dihydro-1H-imidazo[4,5-b]pyridin-1-yl)piperidine-1-carboxamide]: the “CGRP t1/2” value in series [1] was 101 min. The thermodynamic solubility at 24 h in series [3] (setting [4]) was 1960 µM (≈ 1630 µg/mL); in series [3] (setting [5]), 1650 µM (≈ 1370 µg/mL). Also, the Kb on CGRP receptor was 0.0251 nM.
Regarding `Cc1cc(C[C@@H](NC(=O)N2CCC(n3c(=O)[nH]c4ncccc43)CC2)C(=O)N[C@@H](CC2CCN(C(=O)CC(=O)O)CC2)C(=O)N2CCN(c3ccncc3)CC2)cc2cn[nH]c12` [Example 13, 3-(4-{(2S)-2-{[(2R)-3-(7-methyl-1H-indazol-5-yl)-2-({[4-(2-oxo-2,3-dihydro-1H-imidazo[4,5-b]pyridin-1-yl)piperidin-1-yl]carbonyl}amino)propanoyl]amino}-3-oxo-3-[4-(pyridin-4-yl)piperazin-1-yl]propyl}piperidin-1-yl)-3-oxopropanoic Acid, ammonium Salt], at CGRP receptor, the Kb was 0.126 nM. In addition, the pKi average in series [2] is reported as 10.0.

The values above are taken from patent publication US10300056B2, “CGRP receptor antagonists” (Heptares Therapeutics Limited, priority 2015, dated 2019).
